Where “and” joins values, the source holds several entries; their conditions need not be identical. Equal values may be shown once. Entries after “also recorded” stand apart in the source; their conditions may differ. Read-outs that look alike come from different tables or passages of the source. Peptide text beside a SMILES is read from it.

Data set [1] relates to SARS-CoV-2 Spike pseudotyped viruses, HEK-293T-ACE2 cells. It is filed as cell-based, SARS-CoV-2 (Wuhan-Hu-1 Spike). Conditions: for inhibition of pseudovirus, in words: 10 µM.
Data set [2] concerns SARS-CoV-2 live virus (B.1 lineage), Vero E6 cells. It is filed as cell-based.
The test system of another data set is A549 cells. In words: Cytocompatibility (CCK8). Conditions: human alveolar epithelial A549 cells; 0.01-1 mM. The data set is classed as cell-based, human. Here is the method: (§1) Cytocompatibility of the peptides was evaluated at 1, 0.1, and 0.01 mM with A549 cells (ATCC CCL-185) cultured in complete media consisting of 90% F-12K and 10% FBS. The A549 cells were utilized after their first passage and seeded at 10,000 cells/well in a 96-well plate for 24 hours. The conditions were prepared in serum-free A549 media and introduced into the wells for 6 hours, after which the condition media were aspirated, the wells were washed once with PBS, and 10 µL of CCK8 was added to 100 µL of PBS[32]. The plate was incubated for 1 hour and read on a Tecan M200 Infinite plate reader at an absorbance of 450 nm with a reference wavelength of 650 nm. The results were analyzed and normalized to the serum-free media control[28],[32],[76].

A short description of another data set: Cytocompatibility (CCK8). It is filed as cell-based, human. The note with it: human, A549 cells, read-out: cytocompatibility, normalized to serum free media; for viability at 6 h, 10 µM: 0.01 mM peptide; for viability at 6 h, 100 µM: 0.1 mM peptide; for viability at 6 h, 1000 µM: 1 mM peptide. How it is done:
as §1

Data set [3] can be described thus: Acute IV pharmacokinetics. The data set is classed as in vivo, rat (female Wistar). Here is the method:
(§2) Female Wistar rats (225–250 g, 8–12 weeks old) were observed and acclimatized for 2 weeks prior to running the studies. They were housed in a controlled environment with temperature at […] and 40–70% humidity. They were kept in an alternating 12-hour light/dark cycle, and food, and water was provided as pellets ad libitum. Female Wistar Rats were used for the pharmacokinetics and the drug clearance analysis from the blood. The two hydrogels (ESBP2 and ESBP3) at 10 mg/ml concentration were injected into the rats via the lateral tail vein. For subcutaneous implants, the substance was injected between the shoulder blades and above the lumbar vertebrae, 200 μL each, using a 25-gauge needle. The hydrogel bolus was prepared with 0.9% saline and was injected within 1–2 minutes. The volume injected was approximately 1% of the total body weight of the rat, which was calculated prior to the dosing. The initial blood draw was performed for baseline, and the subsequent blood collection was performed from the lateral vein using 25 g butterfly needles.
Rat blood samples were collected at 0, 5, 15, 30 minutes, and 1, 2, 4, 8, and 24 hours post-injection timepoints for Acute PK and were aliquoted out into heparinized tubes to prevent coagulation and stored on top of ice packs. Blood collected in K2EDTA anticoagulant tubes was processed to plasma frozen via centrifugation at 13000 RCF for 10 minutes at 4 °C and stored at −80 °C till analysis using HPLC. The body weight was recorded every day prior to the blood collection.

Data set [4] is described as follows: Daily repeat IV dosing, 10 days (chronic PK/safety). It is filed as in vivo, rat (female Wistar). How it is done:
as §2
Female Wistar rats (225–250 g, 8–12 weeks old) were weighed and repeatedly dosed (1% by weight) IV with ESBP2 or ESBP3 daily at 10 mg/mL (~3 mM). Rat blood samples were collected daily prior to injection via tail vein. Post 10 days of treatment, animals were allowed to recover for 10 days and then sacrificed. Plasma was stored and analyzed as above. The body weight was recorded every day prior to the blood collection.

Setting [5] is: replicate 1, CCK8, 6 h exposure, absorbance 450 nm.

Regarding `CC[C@H](C)[C@H](NC(=O)CNC(=O)[C@H](CCC(=O)O)NC(=O)[C@H](CC(C)C)NC(=O)[C@H](CO)NC(=O)[C@H](CC(C)C)NC(=O)[C@H](CO)NC(=O)[C@H](CC(C)C)NC(=O)[C@H](CO)NC(=O)[C@H](CC(C)C)NC(=O)[C@H](CO)NC(=O)[C@H](CC(C)C)NC(=O)[C@H](CO)NC(=O)[C@H](CC(C)C)NC(=O)[C@H](CO)NC(=O)[C@H](CCC(=O)O)NC(C)=O)C(=O)N[C@@H](CCC(=O)O)C(=O)N[C@@H](CCC(=O)O)C(=O)N[C@@H](CCC(N)=O)C(=O)N[C@@H](C)C(=O)N[C@@H](CCCCN)C(=O)N[C@H](C(=O)N[C@@H](Cc1ccccc1)C(=O)N[C@@H](CC(C)C)C(=O)N[C@@H](CC(=O)O)C(=O)N[C@@H](CCCCN)C(=O)N[C@@H](Cc1ccccc1)C(=O)N[C@@H](CC(N)=O)C(=O)N[C@@H](Cc1c[nH]cn1)C(=O)N[C@@H](CCC(=O)O)C(=O)N[C@@H](C)C(=O)N[C@@H](CCC(=O)O)C(=O)N[C@@H](CC(=O)O)C(=O)N[C@@H](CC(C)C)C(=O)N[C@@H](Cc1ccccc1)C(=O)N[C@@H](Cc1ccc(O)cc1)C(=O)N[C@@H](CCC(N)=O)C(=O)N[C@@H](CO)C(N)=O)[C@@H](C)O` [ESBP1], in data set [1], the “Normalized, Average” value stood at 0.2588 and the “inhibition of pseudovirus, in words” value is “inhibited pseudovirus to a similar degree”. In data set [2], the “live virus inhibition, in words” value is recorded as “significant improvement in viral inhibition”. Besides, in data set [2] (10 µM), the “Relative PFU” value is 51.2258 and 58.5437 and 80.4976.

Take `CC[C@H](C)[C@H](NC(=O)CNC(=O)[C@H](CCCCN)NC(=O)[C@H](CC(C)C)NC(=O)[C@H](CO)NC(=O)[C@H](CC(C)C)NC(=O)[C@H](CO)NC(=O)[C@H](CC(C)C)NC(=O)[C@H](CO)NC(=O)[C@H](CC(C)C)NC(=O)[C@H](CO)NC(=O)[C@H](CC(C)C)NC(=O)[C@H](CO)NC(=O)[C@H](CC(C)C)NC(=O)[C@H](CO)NC(=O)[C@H](CCCCN)NC(C)=O)C(=O)N[C@@H](CCC(=O)O)C(=O)N[C@@H](CCC(=O)O)C(=O)N[C@@H](CCC(N)=O)C(=O)N[C@@H](C)C(=O)N[C@@H](CCCCN)C(=O)N[C@H](C(=O)N[C@@H](Cc1ccccc1)C(=O)N[C@@H](CC(C)C)C(=O)N[C@@H](CC(=O)O)C(=O)N[C@@H](CCCCN)C(=O)N[C@@H](Cc1ccccc1)C(=O)N[C@@H](CC(N)=O)C(=O)N[C@@H](Cc1c[nH]cn1)C(=O)N[C@@H](CCC(=O)O)C(=O)N[C@@H](C)C(=O)N[C@@H](CCC(=O)O)C(=O)N[C@@H](CC(=O)O)C(=O)N[C@@H](CC(C)C)C(=O)N[C@@H](Cc1ccccc1)C(=O)N[C@@H](Cc1ccc(O)cc1)C(=O)N[C@@H](CCC(N)=O)C(=O)N[C@@H](CO)C(N)=O)[C@@H](C)O` [KSBP1]: in data set [1], the “Normalized, Average” value was 0.8193 and the “inhibition of pseudovirus, in words” value was “significant decrease in inhibitory effect”.

With `CSCC[C@H](NC(=O)[C@H](Cc1ccccc1)NC(=O)[C@H](CCCCN)NC(=O)[C@H](CC(=O)O)NC(=O)[C@H](CC(C)C)NC(=O)[C@H](Cc1ccccc1)NC(=O)[C@@H](NC(=O)[C@H](CCCCN)NC(=O)[C@H](CC(C)C)NC(=O)[C@H](CCC(N)=O)NC(=O)[C@H](CCC(=O)O)NC(=O)[C@H](CCC(=O)O)NC(=O)[C@H](CC(C)C)NC(=O)[C@H](C)NC(=O)[C@H](CO)NC(C)=O)[C@@H](C)O)C(=O)N[C@@H](Cc1c[nH]cn1)C(=O)N[C@@H](CCC(=O)O)C(=O)N[C@@H](CC(C)C)C(=O)N[C@@H](CCC(=O)O)C(=O)N[C@@H](CC(=O)O)C(=O)N[C@@H](CC(C)C)C(=O)N[C@@H](CC(C)C)C(=O)N[C@@H](Cc1ccc(O)cc1)C(=O)N[C@@H](CCC(N)=O)C(=O)N[C@@H](CC(C)C)C(=O)N[C@@H](C)C(=O)N[C@@H](CC(C)C)C(N)=O` [SBP2, reference compound] (Ac-SALEEQLKTFLDKFMHELEDLLYQLAL-NH2), in the data set with A549 cells, the “cytocompatibility, in words” value is recorded as “excellent cytocompatibility”. For the same compound, the viability at 6 h, 10 µM came out at 105% in “Cytocompatibility (CCK8)” (replicate 1, CCK8, 6 h) and 92.2% in “Cytocompatibility (CCK8)” (replicate 2, CCK8, 6 h). Moreover, the viability at 6 h, 100 µM in the data set “Cytocompatibility (CCK8)” (replicate 1, CCK8, 6 h) is 107%; in the data set “Cytocompatibility (CCK8)” (replicate 2, CCK8, 6 h) it was 104%; in the data set “Cytocompatibility (CCK8)” (replicate 3, CCK8, 6 h) it was 91.4%. The viability at 6 h, 1000 µM in the data set “Cytocompatibility (CCK8)” (setting [5]) turned out to be 85.7%; in the data set “Cytocompatibility (CCK8)” (replicate 2, CCK8, 6 h), 122%; in the data set “Cytocompatibility (CCK8)” (replicate 3, CCK8, 6 h), 150%. Moreover, in data set [2], the “in vitro live virus inhibition, in words” value was “inhibition of live virus”.

Consider `CC[C@H](C)[C@H](NC(=O)[C@H](Cc1ccc(O)cc1)NC(=O)[C@@H](NC(=O)[C@H](CCCCN)NC(=O)[C@H](Cc1ccc(O)cc1)NC(=O)[C@H](CCC(N)=O)NC(C)=O)[C@@H](C)O)C(=O)N[C@@H](CC(=O)O)C(=O)N[C@@H](CCCCN)C(=O)N[C@@H](CC(N)=O)C(=O)N[C@@H](CC(N)=O)C(=O)N[C@@H](Cc1c[nH]cn1)C(=O)N[C@@H](Cc1ccc(O)cc1)C(=O)N[C@@H](C)C(=O)N[C@@H](CCC(=O)O)C(=O)N[C@@H](CC(=O)O)C(=O)N[C@@H](CCC(=O)O)C(=O)N[C@@H](CCCNC(=N)N)C(=O)N[C@@H](Cc1ccc(O)cc1)C(=O)N[C@@H](CCCCN)C(N)=O` [SBP3] (Ac-QYKTYIDKNNHYAEDERYK-NH2), for which, in the data set “Cytocompatibility (CCK8)” (replicate 1, CCK8, 6 h), the viability at 6 h, 10 µM was 104% and the viability at 6 h, 100 µM was 77.8%. For the same compound, in “Cytocompatibility (CCK8)” (replicate 2, CCK8, 6 h), the viability at 6 h, 10 µM came to 96.9%; the viability at 6 h, 100 µM came to 94.4%; the viability at 6 h, 1000 µM turned out to be 139%. In “Cytocompatibility (CCK8)” (replicate 3, CCK8, 6 h), the viability at 6 h, 100 µM was 95.5%. In addition, the viability at 6 h, 1000 µM in the data set “Cytocompatibility (CCK8)” (setting [5]) was found to be 144%. Further, in data set [2], the “Comparative, Average” value was 72.3704 and the “live virus plaque inhibition, in words” value was “no major differences”.

With “Ac-ESLSLSLSLSLSLEGSALEEQLKTFLDKFMHELEDLLYQLAL-NH2 [ESBP2]”, in the data set with A549 cells, the “cytocompatibility, in words” value is on record as “excellent cytocompatibility”. For the same compound, the viability at 6 h, 10 µM in “Cytocompatibility (CCK8)” (replicate 1, CCK8, 6 h) is 94.5%; in “Cytocompatibility (CCK8)” (replicate 2, CCK8, 6 h), 98.3%. The viability at 6 h, 100 µM in the data set “Cytocompatibility (CCK8)” (replicate 1, CCK8, 6 h) was determined as 129%; in “Cytocompatibility (CCK8)” (replicate 2, CCK8, 6 h), 132%; in “Cytocompatibility (CCK8)” (replicate 3, CCK8, 6 h), 196%. For the same compound, the viability at 6 h, 1000 µM in “Cytocompatibility (CCK8)” (setting [5]) is 117%; in “Cytocompatibility (CCK8)” (replicate 2, CCK8, 6 h), 104%; in the data set “Cytocompatibility (CCK8)” (replicate 3, CCK8, 6 h) it was 94.1%. For the same compound, the “in vitro live virus inhibition, in words” value in data set [2] is recorded as “inhibition of live virus; also recorded: significantly improved in vitro live virus inhibition”. Further, the “eliminated by” value in data set [3] (ESBP2 IV bolus through the tail vein, Wistar rats (n=8)) is at most 8 h. The “clearance from the circulation (time)” value in data set [3] (acute 24-hour single-dose IV bolus PK, rats) lay within 4 to 8 h. The Tmax in data set [3] (female, rat, 10 mg/mL, ESBP2 IV bolus through the tail vein, Wistar rats (n=8), plasma, HPLC, read-out: time of concentration peak (converted)) is 30 min. Further, the Cmax in data set [3] (female, rat, plasma, 10 mg/mL, ESBP2 IV bolus, Wistar rats (n=8), at 30 minutes following injection, read-out: observed maximum concentration) came to 36000 ng/mL. In data set [3] (female, rat, plasma, 10 mg/mL, ESBP2 IV bolus, Wistar rats (n=8), read-out: area under the curve), the AUC amounted to 47000 ng·h/mL. For the same compound, in data set [4] (daily IV for 10 days, ~1 w% (10 mg/mL), 225-250 g adult rats), the “repeat IV dosing safety, in words” value is on record as “no adverse effect”. Besides, in data set [4] (daily repeated IV dosing for 10 days, rats), the “significant changes in body weight (ESBP3 also animal behavior, adverse events, gross organ morphology) compared to carrier” value is given as “no”.

Values taken from publication PMC10850501 (Nature Communications, 2024).
